# Patent US20120077673A1, “Fungicidal Compositions and Methods of Use” (priority 2010, published 2012)
# Experiments:
# Format in all cases: in vivo
# Conditions in all cases: Triadimenol 30 GA/100 Kg
# Pythium [1] = experiment: Corn field trial, Pythium-infected seeds, seed treatment, soil not inoculated (Example 1); design: Density: unit not given here
# Description: Unlike other experiments disclosed herein, the soil for the experiment of EXAMPLE 1 was not inoculated with Pythium. Uninfected untreated, and Pythium-infected untreated seeds served as controls. Triadimenol, 15% w/v, is a systemic broad-spectrum fungicide used for cereal seed treatment, but has no activity against Pythium spp. Metalaxyl, 28.35% w/v, provides systemic protection for the seed, roots, and emerging plants against Pythium, systemic downy mildew, and Phytophthora. For corn, the industry standard dosage of metalaxyl is 2 grams of active ingredient per 100 kilograms of seed (2 GA/100 Kg). Saponin, 49.65% v/v extract of Chenopodium quinoa saponins, contained approximately equimolar amounts of triterpene bidesmosidic glycosides of oleanolic acid, hederagenin, and phytolaccagenic acid. […] In TABLE 1, “Vigor” represents a subjective measure of plant health and is based on uniformity, consistent plant mass, and consistent plant spacing, with lower scores being more favorable than higher scores. The data of TABLE 1 are shown graphically in FIGS. 1A and 1B. As shown by TABLE 1 and FIGS. 1A and 1B, the count and the density increased—over time—for all treatment conditions. The relative density, however, decreased over time for the […] and metalaxyl (2 GA/100 kg) categories. The relative density remained the same for the untreated/uninfected category because it provided the reference point (i.e., the relative densities were calculated with reference to the untreated/uninfected category).
# Pythium [2] = experiment: Cotton field trial, Pythium-infected seeds, seed treatment, control or Pythium-inoculated soil (Example 2)
# Description: The seeds were planted in a field, either in soil that had been inoculated with Pythium (Soil Inoc. with Pythium), or in soil that had not been inoculated with Pythium (Ctrl.), then allowed to grow. Concentrations and compositions of triadimenol, metalaxyl, and saponin are the same as given in Example 1. For cotton, the industry standard dosage of metalaxyl is 15.5 grams of active ingredient per 100 kilograms of seed (15.5 GA/100 Kg). […] The data of TABLE 2 are shown graphically in FIG. 2. The relative densities for the data of TABLE 2 and FIG. 2 were calculated with reference to the 15.5 GA/100 Kg metalaxyl category. As shown by TABLE 2 and FIG. 2, inoculation of the soil with Pythium was correlated with a general decrease in cotton seedling count and density (compare Ctrl. versus Inoc.).
# Pythium [3] = experiment: Cucumber field trial, Pythium-infected seeds, seed treatment, control or Pythium-inoculated soil (Example 3); design: Density: unit not given here
# Description: The seeds were planted in a field, either in soil that had been inoculated with Pythium (Soil Inoc. with Pythium), or in soil that had not been inoculated with Pythium (Ctrl.), then allowed to grow. Concentrations and compositions of triadimenol, metalaxyl, and saponin are the same as given in Example 1. For cucumber, the industry standard dosage of metalaxyl is 15.5 grams of active ingredient per 100 kilograms of seed (15.5 GA/100 Kg). […] The data of TABLE 3 are shown graphically in FIG. 3. The relative densities for the data of TABLE 3 and FIG. 3 were calculated with reference to the 31 GA/100 Kg metalaxyl category. As shown by TABLE 3 and FIG. 3, inoculation of the soil with Pythium was correlated with a general decrease in cucumber seedling count, density, and relative density (compare Ctrl. versus Inoc.).
# Pythium [4] = experiment: Corn hybrids greenhouse trial, Pythium-infected seeds, seed treatment (Example 4)
# Description: Concentrations and compositions of triadimenol, metalaxyl, and saponin are the same as given in Example 1. The data of TABLE 4 are shown graphically in FIGS. 4A and 4B. As shown by TABLE 4 and FIGS. 4A and 4B, pre-treatment of both varieties of corn seeds with 1 GA/100 Kg metalaxyl and 0.6 GA/100 Kg yielded counts similar to those achieved from pre-treatment of seeds with either 2 GA/100 Kg metalaxyl (the industry standard dose for corn) or 7.5 GA/100 Kg metalaxyl.
# [5] = 34 DAA, Soil Inoc. with Pythium
# [6] = 46 DAA, Soil Inoc. with Pythium
# [7] = 18 DAA, Soil Inoc. with Pythium
# [8] = 33 DAA, Soil Inoc. with Pythium
structure (smiles),measurement,setting,value
CC(C)(C)C(O)C(Oc1ccc(Cl)cc1)n1cncn1 (stereo not shown) [Triadimenol],Count,Pythium [1]; 30 DAA,21
same,Density,Pythium [1]; 30 DAA,25.9
same,Relative Density,Pythium [1]; 30 DAA,69.2
same,Count,Pythium [1]; 46 DAA,60
same,Density,Pythium [1]; 46 DAA,74.4
same,Relative Density,Pythium [1]; 46 DAA,96.4
same,Vigor,"Pythium [1]; 46 DAA, subjective score, lower more favorable",4.50
same,Count,"Pythium [2]; 34 DAA, Ctrl. soil",39.5
same,Density,"Pythium [2]; 34 DAA, Ctrl. soil",79
same,Relative Density,"Pythium [2]; 34 DAA, Ctrl. soil",106.8
same,Count,Pythium [2]; [5],18.3
same,Density,Pythium [2]; [5],36.5
same,Relative Density,Pythium [2]; [5],73
same,Count,"Pythium [2]; 46 DAA, Ctrl. soil",40.3
same,Density,"Pythium [2]; 46 DAA, Ctrl. soil",80.5
same,Relative Density,"Pythium [2]; 46 DAA, Ctrl. soil",107.3
same,Count,Pythium [2]; [6],17.5
same,Density,Pythium [2]; [6],35
same,Relative Density,Pythium [2]; [6],71.4
same,Count,"Pythium [3]; 18 DAA, Ctrl. soil",28
same,Density,"Pythium [3]; 18 DAA, Ctrl. soil",56
same,Relative Density,"Pythium [3]; 18 DAA, Ctrl. soil",80
same,Count,Pythium [3]; [7],10
same,Density,Pythium [3]; [7],20
same,Relative Density,Pythium [3]; [7],34.5
same,Count,"Pythium [3]; 33 DAA, Ctrl. soil",28.3
same,Density,"Pythium [3]; 33 DAA, Ctrl. soil",56.5
same,Relative Density,"Pythium [3]; 33 DAA, Ctrl. soil",83.1
same,Count,Pythium [3]; [8],4.3
same,Density,Pythium [3]; [8],8.5
same,Relative Density,Pythium [3]; [8],16.2
same,"Count, Hybrid A",Pythium [4]; Day 2,62
same,"Count, Hybrid B",Pythium [4]; Day 2,24
same,"Count, Hybrid A",Pythium [4]; Day 7,72
same,"Count, Hybrid B",Pythium [4]; Day 7,40
same,"Count, Hybrid A",Pythium [4]; Day 14,74
same,"Count, Hybrid B",Pythium [4]; Day 14,40
